One data set has as its system B16 melanoma 4A5 cell. The data set is described as follows: Melanin production suppressing evaluation test (theophylline-induced melanine production). Type of data set: cell-based, mouse. The note with it: sample at a concentration of 100 μl or less; 0.2 mM theophylline; culturing 3 days. The method, then:
As a test for a whitening effect, evaluation of the action of B16 melanoma 4A5 cell on theophylline-induced melanine production was carried out on a glyceryl ascorbic acid acylated derivative of the present invention, according to the following procedure. The same evaluations were carried out also on arbutin, ascorbic acid, sodium ascorbate, magnesium ascorbyl phosphate, glucosyl ascorbic acid, and 3-O-glyceryl ascorbic acid and 2-O-glyceryl ascorbic acid obtained in the Synthesis Examples mentioned above, as comparison.
(1) B16 mouse melanoma 4A5 strain was sowed onto a 48-well plate at a cell density of 2.0×10^4 cells/well. (2) Culturing was performed for 24 hours with Dulbecco's Modified Eagle's medium (manufactured by SIGMA. Hereinafter, abbreviated as D-MEM) containing 10% fetal bovine serum (manufactured by Roshe Diagnostics). Then, it was changed to 0.2 mM theophylline and a 10% fetal bovine serum-containing D-MEM which contains a sample of given concentration. (3) After culturing for 3 days in the co-existence of a sample, the medium was removed using an aspirator. Then, after distilled water was added, cells were broken by an ultrasonic wave. (4) Thereafter, the amount of protein was determined using BCA protein assay kit (manufactured by PIERCE), and the produced amount of melanine was measured by an alkali solubilizing method described later. To the cell-destructed solution was added sodium hydroxide so as to give a final concentration of 2 mol/L and the mixture was dissolved by heating (60° C., 15 minutes), then, the absorbance at 450 nm was measured using a micro plate reader. The melanine amount was calculated from a calibration curve made using synthetic melanine (SIGMA) as a standard. The melanine amount per unit protein was calculated by dividing the melanine amount by the protein amount. (5) The melanine production suppressing rate was calculated according to the following formula.
Melanine production suppressing rate(%)=[1−(A−B)/(C−B)]×100
[wherein, A represents the melanine amount per unit protein (g/g) in adding a sample, B represents the melanine amount per unit protein (g/g) in the normal group, and C represents the melanine amount per unit protein (g/g) in the control group.]
The normal group means the case where neither theophylline nor sample was added.(that is; theophylline(−) and sample(−))
The control group means the case where neither sample was not added but theophylline was added.(that is; theophylline (+) and sample(−))
In the following Tables, the melanine production suppressing rate in applying a sample at a concentration of […] or less is expressed as described below.

Data set [1] deals with Normal human dermal fibroblasts. Put plainly: Collagen production evaluation test (Sircol collagen assay). The note with it: sample 100 μM, cultured 48 hours; for activity at 100 µM: Homo sapiens, Fibroblast, read-out: Collagen production promoting effect (collagen production amount, control group is 100%). Type of data set: cell-based. On the procedure: The collagen production promoting effects of the glyceryl ascorbic acid acylated derivatives of the present invention were evaluated, according to the following procedure. As comparison, arbutin, ascorbic acid, sodium ascorbate, magnesium ascorbyl phosphate, glucosyl ascorbic acid, 3-O-glyceryl ascorbic acid and 2-O-glyceryl ascorbic acid were used like in Test Example 1.
Normal human dermal fibroblasts were regulated with a 10% (v/v) fetal bovine serum (manufactured by Invitrogen)-containing D-MEM so as to give a cell density of 2.5×10^4 cells/well, then, pre-incubation for 24 hours was performed on a 96-well plate. After the medium was removed, a sample regulated with a 5% (v/v) fetal bovine serum-containing D-MEM to a concentration of 100 μM was added to each well, then, cultured for 48 hours at 37° C. and 5% CO2. After completion of culturing, the amount of free collagen was measured using Sircol collagen assay kit (manufactured by Biocolor).
The collagen production amount in applying a sample at a concentration of 100 μM is obtained as % value when the control group is 100%, and the results are shown in Table 4 based on the following standard.

A short description of data set [2]: Stability test: odor and color change of 2% aqueous solution stored at 50° C. It is filed as physicochemical. The note with it: pH7, ten panelists. On the procedure:
Using 2-O-glyceryl-6-O-octanoyl ascorbic acid obtained in Example 2 and 2-O-glyceryl-6-O-octadecanoyl ascorbic acid obtained in Example 9, an evaluation was made on the stability of odor and color change when stored at 50° C. for 4 weeks, according to the following procedure. For comparison, magnesium ascorbyl phosphate, ascorbic acid and 3-O-glyceryl ascorbic acid were used.
Aqueous solutions (2%) of various test samples were adjusted to pH7 with a dilute sodium hydroxide aqueous solution or a dilute hydrochloric acid aqueous solution, and charged into 50 mL screw tubes. The tubes were sealed and stored at 50° C. for 4 weeks. The odor and degree of color change immediately after preparation, after storage for two weeks and after storage for four weeks were evaluated by ten panelists based on the following methods and according to the following criterion.
3: almost no change as compared with that immediately after preparation
2: color change is observed as compared with that immediately after preparation
1: intense color change is observed as compared with that immediately after preparation
Based on the evaluation results, classification was conducted as shown below.
◯: total point of 10 panelists is 25 or more
Δ: total point of 10 panelists is 16 to 24
x: total point of 10 panelists is 15 or less

Setting [3] is: storage period 0 (immediately after preparation).

Each structure is given as a SMILES string.

Take `CCCC(=O)OCC(O)COC1=C(O)[C@@H]([C@@H](O)COC(=O)CCC)OC1=O` (stereo partly shown) [Example 11, 2-O-(3′-O-butanoylglyceryl)-6-O-butanoyl ascorbic acid]: in the data set on B16 melanoma 4A5 cell, the “Whitening effect (melanine production suppressing rate)” value (shortened to “Whitening effect”) was “◯ (30 to 49%)”.

As for `O=C1O[C@H]([C@@H](O)CO)C([O-])=C1OP(=O)([O-])[O-].O=C1O[C@H]([C@@H](O)CO)C([O-])=C1OP(=O)([O-])[O-].[Mg+2].[Mg+2].[Mg+2]` [Magnesium ascorbyl phosphate], the “Whitening effect” value in the data set on B16 melanoma 4A5 cell is “Δ (Less than 30%)”. Also, the “Collagen production promoting effect (collagen production amount, control group is 100%)” value in data set [1] is given as “+ (100 to 200%)”. Moreover, the Color change result in data set [2] (storage 2 weeks at 50° C.) is on record as “Δ (total point of 10 panelists is 16 to 24)”; in data set [2] (setting [3]), “◯ (total point of 10 panelists is 25 or more)”. The Odor entry in data set [2] (storage 2 weeks at 50° C.), in data set [2] (storage 4 weeks at 50° C.) and in data set [2] (setting [3]) was “◯ (total point of 10 panelists is 25 or more)” throughout.

Consider `CCCCCCCCCCCC(=O)OC1=C(OCC(O)CO)C(=O)OC1C(O)COC(=O)CCCCCCC` (stereo not shown) [Example 19, 2-O-glyceryl-3-O-dodecanoyl-6-O-octanoy ascorbic acid], for which the “Whitening effect” value with B16 melanoma 4A5 cell is reported as “⊚ (50% or more)”.

For `CCCC(=O)OC[C@H](O)[C@H]1OC(=O)C(O)=C1OCC(O)CO` (stereo partly shown) [Example 20, 3-O-glyceryl-6-O-butanoyl ascorbic acid], in data set [1], the activity at 100 µM was in the range of 100 to 200%.

For `CCCCCCCC(=O)OC[C@H](O)[C@H]1OC(=O)C(O)=C1OCC(O)CO` (stereo partly shown) [Example 21, 3-O-glyceryl-6-O-octanoyl ascorbic acid], in the data set on B16 melanoma 4A5 cell, the “Whitening effect” value is “⊚ (50% or more)”.

Turning to `CCCCCCCCCCCCCCCC(=O)OC[C@H](O)[C@H]1OC(=O)C(O)=C1OCC(O)CO` (stereo partly shown) [Example 22, 3-O-glyceryl-6-O-hexadecanoyl ascorbic acid], the activity at 100 µM in data set [1] fell in the range of 100 to 200%.

As for `O=C1O[C@H]([C@@H](O)CO)C([O-])=C1O.[Na+]` [Sodium ascorbate, reference compound], the “Whitening effect” value with B16 melanoma 4A5 cell was “Δ (Less than 30%)”. Besides, the activity at 100 µM in data set [1] is 100 to 200%.

`CCCCCCCC(=O)OC1=C(OCC(O)CO)C(=O)O[C@@H]1[C@@H](O)CO` (stereo partly shown) [Example 18, 2-O-glyceryl-3-O-octanoyl ascorbic acid]: the activity at 100 µM in data set [1] is 100 to 200%.

Regarding `CCCCCCCCCCCCCC(=O)OC[C@H](O)[C@H]1OC(=O)C(OCC(O)CO)=C1O` (stereo partly shown) [Example 7, 2-O-glyceryl-6-O-tetradecanoyl ascorbic acid], the “Whitening effect” value in the data set with B16 melanoma 4A5 cell is recorded as “⊚ (50% or more)”.

Turning to `CCCCCCCCCCCCCCCC(=O)OCC(O)COC1=C(O)[C@@H]([C@@H](O)COC(=O)CCC)OC1=O` (stereo partly shown) [Example 16, 2-O-(3′-O-hexadecanoylglyceryl)-6-O-butanoyl ascorbic acid], the “Whitening effect” value with B16 melanoma 4A5 cell is on record as “⊚ (50% or more)”.

Consider `CCCCCCCC/C=C\CCCCCCCC(=O)OC[C@H](O)[C@H]1OC(=O)C(OCC(O)CO)=C1O` (stereo partly shown) [Example 10, 2-O-glyceryl-6-O-oleoyl ascorbic acid], for which, in the data set on B16 melanoma 4A5 cell, the “Whitening effect” value is listed as “⊚ (50% or more)”.

On to `CCCCCCCCCCCCCCCCCC(=O)OC[C@H](O)[C@H]1OC(=O)C(OCC(O)CO)=C1O` (stereo partly shown) [Example 9, 2-O-glyceryl-6-O-octadecanoyl ascorbic acid], for which, in the data set with B16 melanoma 4A5 cell, the “Whitening effect” value is “⊚ (50% or more)”. Moreover, the Color change entry in data set [2] (storage 2 weeks at 50° C.), in data set [2] (storage 4 weeks at 50° C.) and in data set [2] (setting [3]) was “◯ (total point of 10 panelists is 25 or more)” each time. Besides, the Odor entry in data set [2] (storage 2 weeks at 50° C.), in data set [2] (storage 4 weeks at 50° C.) and in data set [2] (setting [3]) was “◯ (total point of 10 panelists is 25 or more)” throughout.

`CCCCCCCC(=O)OCC(O)COC1=C(O)[C@@H]([C@@H](O)COC(=O)CCC)OC1=O` (stereo partly shown) [Example 15, 2-O-(3′-O-octanoylglyceryl)-6-O-butanoyl ascorbic acid]: in data set [1], the activity at 100 µM is 100 to 200%.

Regarding `CCCCCCCCCCCC(=O)OCC(O)COC1=C(O)C(=O)O[C@@H]1[C@@H](O)COC(=O)CCC` (stereo partly shown) [Example 23, 3-O-(3′-O-dodecanoylglyceryl)-6-O-butanoyl ascorbic acid], the activity at 100 µM in data set [1] fell in the range of 100 to 200%.

As for `OC[C@H]1O[C@@H](Oc2ccc(O)cc2)[C@H](O)[C@@H](O)[C@@H]1O` [Arbutin, reference compound], in the data set on B16 melanoma 4A5 cell, the “Whitening effect” value was “⊚ (50% or more)”. Further, the activity at 100 µM in data set [1] was < 100%.

As to `CCCC(=O)OCC(O)COC1=C(OC(=O)CCC)[C@@H]([C@@H](O)COC(=O)CCC)OC1=O` (stereo partly shown) [Example 13, 2-O-(3′-O-butanoylglyceryl)-3,6-di-O-butanoyl ascorbic acid], in the data set on B16 melanoma 4A5 cell, the “Whitening effect” value is “⊚ (50% or more)”. Also, the activity at 100 µM in data set [1] fell in the range of 100 to 200%.

As for `O=C1O[C@H]([C@@H](O)CO)C(O)=C1O` [Ascorbic acid], the “Whitening effect” value in the data set on B16 melanoma 4A5 cell is reported as “Δ (Less than 30%)”. For the same molecule, the activity at 100 µM in data set [1] was in the range of 100 to 200%. Also, the Odor result is reported as “Δ (total point of 10 panelists is 16 to 24)” in data set [2] (storage 2 weeks at 50° C.) and “◯ (total point of 10 panelists is 25 or more)” in data set [2] (setting [3]). In addition, the Color change result in data set [2] (setting [3]) is recorded as “◯ (total point of 10 panelists is 25 or more)”.

Take `CCCCCCCCCCCC(=O)OC[C@H](O)[C@H]1OC(=O)C(OCC(O)COC(=O)CCC)=C1O` (stereo partly shown) [Example 17, 2-O-(3′-O-butanoylglyceryl)-6-O-dodecanoyl ascorbic acid]: the activity at 100 µM in data set [1] lay within 100 to 200%.

Source of the values: US20130204017A1, “GLYCERYL ASCORBIC ACID ACYLATED DERIVATIVE OR ITS SALT, PRODUCTION METHOD THEREOF, AND COSMETICS” (SEIWA KASEI COMPANY, LIMITED, priority 2012, published 2013).
